According to patent publication US20220323445A1, “REDUCING IMMUNOGENICITY TO PEGLOTICASE” (Horizon Therapeutics Ireland DAC, priority 2020, published 2022):

Tested on: serum uric acid (sUA)
Assay: Serum uric acid (sUA) levels and sUA responders, open-label study of pegloticase with MTX (NCT03635957)
Format: in vivo, human
Conditions: mITT
Procedure: The primary objective is to estimate the response rate during Month 6 (Weeks 20, 22, and 24), as measured by the sustained normalization of serum uric acid (SUA) to <6 mg/dL for at least 80% of the time during Month 6 in subjects receiving KXX with MTX.
The primary efficacy outcome endpoint is the sustained normalization of SUA to <6 mg/dL for at least 80% of the time during month 6 (weeks 20, 22, and 24) in subjects receiving KXX with MTX. This is slightly below the urate solubility threshold and this threshold has been the accepted standard for nearly all modern gout trials. Participants who achieve this endpoint were classified as “responders.” Serum uric acid (SUA) responders may also be defined as participants achieving and maintaining SUA <6 mg/dL for at least 80% of the time during Month 6 (Weeks 20, 22, and 24).
Blood samples may be collected prior to each pegloticase infusion for measurement of SUA levels using the Beckman Coulter AU System Uric Acid procedure. Participants were declared “non-responders” if there were SUA measures >6 mg/dL at 2 consecutive study visits beginning with the week 2 visit. […] If the SUA goal is not maintained before or at the 12-week mark, it was assumed that the participant had developed clinically relevant anti-pegloticase antibody and they received no further infusions. This assumption and subsequent discontinuation of pegloticase was consistent with the protocol of large phase III randomized controlled trials and the product label. A formal stopping rule was 2 occasions of SUA levels of greater than 6 mg/dL.
Clinical Chemistry—Blood samples were collected prior to each pegloticase infusion for measurement of SUA levels (primary efficacy parameter) using the Beckman Coulter AU System Uric Acid procedure. In this procedure uric acid is converted to hydrogen peroxide. Hydrogen peroxide reacts with reagent to produce a chromophore which is read bichromatically at 660/800 nm. The amount of dye formed is proportional to the uric acid concentration in the sample.
Serum samples for measurement of SUA levels were collected at the Screening Visit, the Week −4 Visit (prior to the first dose of MTX), and the Week −2 Visit during the MTX Run-in Period; within 48 hours prior to each pegloticase infusion and after the end of each pegloticase infusion prior to discharge from the site during the Pegloticase+IMM Period; at the non-infusion Week 52/End of Study/Early Termination Visits and at the Post Treatment 3 and 6 Month Follow-up Visits. Additional serum samples for SUA levels were collected at optional non-infusion (Frequent Sampling) Visits at Weeks 1 and 7. […] Subjects with SUA level >6 mg/dL at 2 consecutive visits beginning at Week 2 visit discontinued treatment, completed the End of Pegloticase Infusion Visit procedures within 2 weeks and continued the subject visits according to the protocol (without treatment).
Efficacy analyses were performed using the modified intention-to-treat (mITT) population, defined as all enrolled subjects who received ≥1 dose of pegloticase. The proportion of Month 6 responders was summarized, along with a 95% confidence interval for the proportion. The proportion of Month 3 and overall (Months 3 and 6 combined) responders was analyzed similarly.
A subject was declared a non-responder if the subject had SUA level >6 mg/dL at 2 consecutive study visits beginning with the Week 2 Visit. In addition, a subject who withdraws from study treatment for any reason after the first dose of pegloticase in the KXX+MTX Period and prior to Month 6 (for the primary endpoint) or Month 3 (for the secondary endpoint) was considered a non-responder if SUA values were not collected at the planned time points.
Patients were administered oral MTX (15 mg/week) and folate (1 mg/day) 4 weeks prior to the first pegloticase infusion (Day 1) and throughout the pegloticase treatment period. […]

[1] = Day 1 - Pre-Infusion (after MTX Run-in)

## CN(Cc1cnc2nc(N)nc(N)c2n1)c1ccc(C(=O)N[C@@H](CCC(=O)O)C(=O)O)cc1 [MTX, methotrexate]
[1]
  sUA Change from Methotrexate Baseline, Mean (SD): 0.25 (1.283) mg/dL
  sUA Change from Methotrexate Baseline, Median: -0.25 mg/dL
  sUA Observed, Median: 9.00 mg/dL
  sUA ≤ 6 mg/dL, n (%): 1 (7.1%) n (%)
Week -2 (MTX Run-in Period)
  sUA Change from Methotrexate Baseline, Mean (SD): 0.54 (0.839) mg/dL
  sUA Change from Methotrexate Baseline, Median: 0.50 mg/dL
  sUA Observed, Median: 9.30 mg/dL
  sUA ≤ 6 mg/dL, n (%): 1 (7.1%) n (%)
